Data taken from PubChem BioAssay AID330 (DTP/NCI, 2004).
Several values for one entry are separate records, joined by “and”; a condition that tells them apart may be missing. Equal entries are not always repeated. Inconclusive results and toxic doses are left out. Rule for the calls: active = survival T/C of 150% or more; inactive = T/C below 125% in these data.

Tested on: P388 leukemia ip, CD2F1 mice, survival T/C
Assay: NCI In Vivo Anticancer Drug Screen. Data for tumor model P388 Leukemia (intraperitoneal) in CD2F1 (CDF1) mice
Conditions: endpoint: median survival time, higher = longer survival
How it was run: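 Mice carrying the transplanted tumor received test compound or vehicle. Survival was recorded in each group, and the value is the treated-group measurement divided by that of the vehicle-treated control group.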

[1] = dose: 12.5 mg/kg/injection, schedule: Q01DX009 (ip), vehicle: distilled water + Tween-80
[2] = dose: 50.0 mg/kg/injection, schedule: Q01DX005 (ip), vehicle: saline

Measured: T/C

COC1=C(N)C(=O)c2nc(-c3nc(C(=O)O)c(C)c(-c4ccc(OC)c(OC)c4O)c3N)ccc2C1=O
inactive: dose: 0.01 mg/kg/injection, schedule: Q01DX009 (ip), vehicle: other 93 % of control | dose: 0.01 mg/kg/injection, schedule: Q## X024 (ip), vehicle: other 110 % of control | dose: 0.02 mg/kg/injection, schedule: Q01DX009 (ip), vehicle: DMSO 101 % of control | dose: 0.02 mg/kg/injection, schedule: Q## X016 (ip), vehicle: other 110 % of control | dose: 0.02 mg/kg/injection, schedule: Q## X024 (ip), vehicle: other 100 % of control | dose: 0.03 mg/kg/injection, schedule: Q01DX009 (ip), vehicle: distilled water + Tween-80 117 % of control and 97 % of control | dose: 0.03 mg/kg/injection, schedule: Q01DX009 (ip), vehicle: other 95 % of control | dose: 0.04 mg/kg/injection, schedule: Q01DX009 (ip), vehicle: DMSO 123 % of control | dose: 0.05 mg/kg/injection, schedule: Q01DX001 (ip), vehicle: other 120 % of control | dose: 0.05 mg/kg/injection, schedule: Q01DX009 (ip), vehicle: DMSO 119 % of control | dose: 0.05 mg/kg/injection, schedule: Q## X008 (ip), vehicle: other 120 % of control | dose: 0.05 mg/kg/injection, schedule: Q## X016 (ip), vehicle: other 110 % of control | dose: 0.05 mg/kg/injection, schedule: Q## X024 (ip), vehicle: other 110 % of control | dose: 0.06 mg/kg/injection, schedule: Q01DX009 (ip), vehicle: DMSO 124 % of control | dose: 0.08 mg/kg/injection, schedule: Q01DX009 (ip), vehicle: DMSO 110 % of control | dose: 0.1 mg/kg/injection, schedule: Q01DX001 (ip), vehicle: other 120 % of control | dose: 0.1 mg/kg/injection, schedule: Q01DX009 (oral), vehicle: other 110 % of control | dose: 0.1 mg/kg/injection, schedule: Q## X008 (ip), vehicle: other 120 % of control | dose: 0.1 mg/kg/injection, schedule: Q## X016 (ip), vehicle: other 110 % of control | dose: 0.12 mg/kg/injection, schedule: Q01DX009 (ip), vehicle: other 120 % of control | dose: 0.15 mg/kg/injection, schedule: Q01DX009 (ip), vehicle: dioxane 123 % of control | dose: 0.16 mg/kg/injection, schedule: Q01DX009 (ip), vehicle: distilled water + Tween-80 123 % of control | dose: 0.16 mg/kg/injection, schedule: Q01DX009 (ip), vehicle: other 102 % of control and 103 % of control | dose: 0.2 mg/kg/injection, schedule: Q01DX001 (ip), vehicle: other 120 % of control | dose: 0.2 mg/kg/injection, schedule: Q01DX009 (oral), vehicle: other 110 % of control | dose: 0.2 mg/kg/injection, schedule: Q## X008 (ip), vehicle: other 120 % of control | dose: 0.2 mg/kg/injection, schedule: Q## X016 (ip), vehicle: other 120 % of control | dose: 0.32 mg/kg/injection, schedule: Q01DX009 (ip), vehicle: distilled water + Tween-80 101 % of control and 94 % of control | dose: 0.4 mg/kg/injection, schedule: Q01DX009 (oral), vehicle: other 110 % of control | dose: 0.8 mg/kg/injection, schedule: Q01DX001 (oral), vehicle: other 100 % of control | dose: 0.8 mg/kg/injection, schedule: Q01DX009 (oral), vehicle: other 100 % of control | dose: 1.6 mg/kg/injection, schedule: Q01DX001 (oral), vehicle: other 100 % of control | dose: 2.5 mg/kg/injection, schedule: Q01DX009 (ip), vehicle: saline with Tween-80 95 % of control | dose: 3.2 mg/kg/injection, schedule: Q01DX001 (oral), vehicle: other 90 % of control | [1] 103 % of control | dose: 25.0 mg/kg/injection, schedule: Q01DX009 (ip), vehicle: distilled water + Tween-80 110 % of control | dose: 50.0 mg/kg/injection, schedule: Q01DX009 (ip), vehicle: distilled water + Tween-80 119 % of control | dose: 200.0 mg/kg/injection, schedule: Q01DX009 (ip), vehicle: distilled water + Tween-80 119 % of control | dose: 25.0 micrograms/kg/injection, schedule: Q01DX009 (ip), vehicle: other 120 % of control | dose: 400.0 micrograms/kg/injection, schedule: Q01DX009 (ip), vehicle: other 114 % of control

O=S(=O)(O)c1ccc(-c2c3nc(c(-c4ccc(S(=O)(=O)O)cc4)c4ccc([nH]4)c(-c4ccc(S(=O)(=O)O)cc4)c4nc(c(-c5ccc(S(=O)(=O)O)cc5)c5ccc2[nH]5)C=C4)C=C3)cc1
inactive: dose: 1.56 mg/kg/injection, schedule: Q01DX009 (ip), vehicle: distilled water + Tween-80 97 % of control | dose: 3.13 mg/kg/injection, schedule: Q01DX009 (ip), vehicle: distilled water + Tween-80 100 % of control | dose: 6.25 mg/kg/injection, schedule: Q01DX009 (ip), vehicle: distilled water + Tween-80 100 % of control | [1] 102 % of control and 109 % of control

O=C1c2c(O)cc(O)cc2OC(c2ccc(O)cc2O)C1O (centres undefined)
inactive: dose: 30.3 mg/kg/injection, schedule: Q01DX009 (ip), vehicle: saline 98 % of control | dose: 60.7 mg/kg/injection, schedule: Q01DX009 (ip), vehicle: saline 100 % of control | dose: 121.4 mg/kg/injection, schedule: Q01DX009 (ip), vehicle: saline 103 % of control

CCOP(=O)(N(CCCl)CCCl)N1CCc2ccccc2C1 (centres undefined)
inactive: dose: 12.5 mg/kg/injection, schedule: Q04DX003 (ip), vehicle: saline with Tween-80 103 % of control | dose: 25.0 mg/kg/injection, schedule: Q04DX003 (ip), vehicle: saline with Tween-80 98 % of control | dose: 50.0 mg/kg/injection, schedule: Q04DX003 (ip), vehicle: saline with Tween-80 103 % of control | dose: 100.0 mg/kg/injection, schedule: Q04DX003 (ip), vehicle: saline with Tween-80 110 % of control | dose: 200.0 mg/kg/injection, schedule: Q04DX003 (ip), vehicle: saline with Tween-80 112 % of control | dose: 400.0 mg/kg/injection, schedule: Q04DX003 (ip), vehicle: saline with Tween-80 119 % of control

Ic1ccc(C2CC(c3ccccc3)=NN2c2ccccc2)cc1 (centres undefined)
inactive: dose: 25.0 mg/kg/injection, schedule: Q01DX009 (ip), vehicle: Klucel (hydroxypropylcellulose) (HPC) 97 % of control | dose: 50.0 mg/kg/injection, schedule: Q01DX009 (ip), vehicle: Klucel (hydroxypropylcellulose) (HPC) 87 % of control | dose: 100.0 mg/kg/injection, schedule: Q01DX009 (ip), vehicle: Klucel (hydroxypropylcellulose) (HPC) 87 % of control | dose: 200.0 mg/kg/injection, schedule: Q01DX009 (ip), vehicle: Klucel (hydroxypropylcellulose) (HPC) 90 % of control

COc1ccc(C2N=C(N)Nc3nc[nH]c32)c(OC)c1 (centres undefined)
inactive: dose: 50.0 mg/kg/injection, schedule: Q01DX009 (ip), vehicle: suspension in saline 102 % of control | dose: 100.0 mg/kg/injection, schedule: Q01DX009 (ip), vehicle: suspension in saline 115 % of control | dose: 200.0 mg/kg/injection, schedule: Q01DX009 (ip), vehicle: suspension in saline 109 % of control

Clc1nc(C(Cl)Cl)nc2ccccc12
inactive: dose: 30.0 mg/kg/injection, schedule: Q01DX005 (ip), vehicle: saline with Tween-80 106 % of control | dose: 60.0 mg/kg/injection, schedule: Q01DX005 (ip), vehicle: saline with Tween-80 110 % of control and 111 % of control | dose: 120.0 mg/kg/injection, schedule: Q01DX005 (ip), vehicle: saline with Tween-80 111 % of control and 113 % of control

CC1CCC(C(C)C)C(OC(=O)c2ccc[n+](C)c2)C1 (centres undefined)
inactive: dose: 12.5 mg/kg/injection, schedule: Q01DX005 (ip), vehicle: saline 105 % of control | dose: 25.0 mg/kg/injection, schedule: Q01DX005 (ip), vehicle: saline 116 % of control | [2] 100 % of control and 105 % of control

O=NN(CC1(O)OCC(O)C(O)C1O)C(Cc1ccccc1)C(=O)O (centres undefined)
inactive: [2] 104 % of control | dose: 100.0 mg/kg/injection, schedule: Q01DX005 (ip), vehicle: saline 103 % of control | dose: 200.0 mg/kg/injection, schedule: Q01DX005 (ip), vehicle: saline 97 % of control
